The source of these data is patent US11801307B2, “Antibody-polymer-drug conjugates” (priority 2016, dated 2023).

“Also recorded” adds a separate entry of the source.

The subject of series [1] is Ramos B-cell lymphoma tumors. Conditions: i.v., 4 doses at 3-day intervals, 20 mg/kg RTX or equivalent (EPI 1.5 mg/kg). The procedure:
Ramos cells (5×10^6) in 200 μl of PBS were subcutaneously inoculated in the right flank of 7- to 9-wk-old male NOD SCID mice. Tumor size was measured with a caliper, and tumor volume was calculated according to the formula: Tumor volume (mm^3)=½×length×[…], where the length (mm) is the longest and the width (mm) is the shortest dimension of the tumor. When the average tumor size reached 150±50 mm^3, treatment was initiated (n=4-5). […] Body weight variation was computed by the equation: variation=(WDayn−WDay0)/WDay0×100%. […] Saline was used as non-treated control. […] The data are presented as mean±SD (n=4-5).
NOD SCID mice were subcutaneously implanted with Ramos cells (5×10^6 cells/200 μl saline) into the right flank. […] Saline was injected as control. […] Mice were treated with 4 doses at 3-day intervals.
In addition, body weight of the mice was closely recorded during and after treatment. […] Four-doses were administered on days 11, 14, 17 and 20.

The next series deals with Ramos cells. Put plainly: In vitro cytotoxicity toward Ramos cells, CCK-8 assay. It counts as cell-based, human. Conditions: 48 h. The procedure:
The cytotoxicity of antibody and antibody-polymer-drug conjugates against Ramos cells was measured by CCK-8 assay (Dojindo). The cells were seeded in 96-well plates at the density of 10,000 cells (200 μl) per well in RMPI-1640 media containing 10% FBS. After 24 h, RTX, RTX-EPI RTX-P-EPI, mixture of RTX with P-EPI and IgG-P-EPI (0.3 mg/ml×15 μl for antibody) in medium was added and incubated at 37° C. for 48 h. The number of viable cells was estimated using CCK-8 kit according to the manufacturer's protocol. In brief, 50 μl 5× diluted CCK-8 solution was added and incubated at 37° C., 5% CO2 for 4 h, the absorbance was measured using a microplate reader at 450 nm (630 nm as reference). Untreated control cells were set as 100% viable.
The cytotoxicity of RTX-P-EPI against Ramos cells was first evaluated at the concentration of 0.15 μM (related to RTX). Unconjugated RTX, non-specific conjugate IgG-P-EPI and directly conjugated with free drug (RTX-EPI) were used as controls. The Ramos cells were incubated with the samples for 48 h and evaluated by CCK-8 assay (FIG. 6).
10^4 Ramos cells were seeded in each well of 96-well plates in 200 μl RPMI-1640 media containing 10% FBS. Different samples (0.3 mg/ml×15 μl) were added and incubated at 37° C. in a humidified atmosphere of 5% CO2 (v/v). After 48 h, the number of viable cells was estimated using CCK-8 kit at 450 nm (630 nm as reference). […]
In general terms: Tetrazolium dyes change colour on reduction, which living cells bring about.

Series [2] is described as follows: Biodistribution of 125I-labeled conjugates in mice bearing s.c. Ramos tumors. The note with it: 72 h after intravenous injection. Type of series: in vivo, male NOD SCID mice. The procedure: For biodistribution study, 7-9 week-old male NOD SCID mice bearing s.c. Ramos tumors received intravenous injection of ^125I labeled RTX, RTX-P-EPI, or IgG-P-EPI (0.1 mg, 20 μCi per mouse). At 72 and 96 h after administration, the mice were sacrificed. Various tissues (heart, liver, spleen, lung, kidney, stomach, intestine, muscle, bone, brain and tumor) were harvested, weighed, and counted for radioactivity with Gamma Counter (Packard). Uptake of the conjugate was calculated as the percentage of the injected dose per gram of tissue (% ID/g). Data are presented as mean±standard deviation (n=3).
The biodistribution of RTX, RTX-P-EPI and IgG-P-EPI labeled by ^125I in male NOD SCID mice bearing s.c. xenograft tumor model was also compared.

A further series relates to low-grade NHL. Conditions: disease progression or relapse after prior RTX; cited from earlier work.
A further series relates to Raji cells. Briefly: Apoptosis induction in Raji cells, Annexin V/PI staining. Type of series: cell-based, human. The note with it: RTX alone. The procedure:
Incubation time was 48 h.
Percentage of apoptotic cells was quantified by flow cytometry. All data are presented as mean±SD (n=3).
This raises the likelihood that this system will be efficient in the treatment of RTX-resistant disease.

A short description of series [3]: Blood pharmacokinetics of 125I-labeled conjugates. Type of series: in vivo, male NOD SCID mice. Conditions: i.v. 3.5 mg/kg single dose. The procedure: The conjugates were radioiodinated by the Iodogen method as previously described (Liu et al., 2009). 7-9 week-old healthy male NOD/SCID mice (n=3) were intravenously injected with ^125I labeled RTX, RTX-P-EPI or IgG-P-EPI conjugates (0.1 mg, 20 μCi per mouse), respectively. At predetermined intervals, blood samples (10 μl) were taken from the tail vein, and the radioactivity of each sample was measured with Gamma Counter (Packard).
The pharmacokinetic properties of ^125I labeled RTX, RTX-P-EPI and IgG-P-EPI were evaluated in male NOD SCID mice. Antibody was radiolabeled by ^125I and i.v. injected at 3.5 mg/kg (based on antibody for RTX, RTX-P-EPI, and IgG-P-EPI) single dose.

The next series concerns the target T1, CD20 (Homo sapiens, UniProt P11836).
T1 construct: host or cells: Ramos Burkitt's lymphoma cells
T1 sequence (P11836 1-297): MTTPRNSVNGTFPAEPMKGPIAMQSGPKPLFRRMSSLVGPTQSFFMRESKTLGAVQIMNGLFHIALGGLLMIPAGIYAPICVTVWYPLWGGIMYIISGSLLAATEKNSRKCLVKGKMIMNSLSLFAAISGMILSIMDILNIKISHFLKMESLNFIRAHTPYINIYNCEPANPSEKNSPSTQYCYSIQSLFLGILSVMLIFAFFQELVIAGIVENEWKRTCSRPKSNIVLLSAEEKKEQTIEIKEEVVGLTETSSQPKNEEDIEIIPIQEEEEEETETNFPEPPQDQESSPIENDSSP
Put plainly: RTX-Cy5 binding on the surface of Ramos cells, with and without RTX pre-blocking. The protocol:
Non-treated, cells in culture medium; RTX-Cy5, Ramos cells (2×10^5) were treated with 1 μg RTX-Cy5 at 4° C. for 30 min; RTX Blocked+RTX-Cy5, after pre-blocking by 10 μg RTX at 4° C. for 30 min, 1 μg RTX-Cy5 was added and incubated at 4° C. for 30 min. The cells were analyzed by flow cytometry. Data are reported as MFI, mean fluorescence intensity.
To ensure CD-20 antigen expression on the surface of the Ramos cells used, the Ramos cells were exposed to RTX labeled with Cy5 (RTX-Cy5). […] This confirmed the expression of CD20 on the surface of the Ramos cells, and their specific binding affinity to RTX.

The test system of series [4] is A2780 human ovarian carcinoma xenografts. The note with it: 5 mg/kg EPI equivalent, day 20, s.c. model; cited from earlier work.
The conditions of series [5]: free drug; cited from earlier work.

Take “RTX-EPI: control conjugate in which EPI was directly attached to RTX via maleimide, EPI/RTX 3.1”: the “antitumor effect (in words)” value in [1] is recorded as “marginal effects”. The “kill of Ramos cells” value in the series on Ramos cells (0.15 μM (related to RTX)) is recorded as 18%.

Rituximab [RTX, reference compound]: the “level in the tumor” value in [2] was found to be 0.71 % ID/g tissue. The “antitumor effect (in words)” value in series [1] is “marginal effects”. Besides, the “patients responding to RTX re-treatment” value in the series with low-grade NHL is 40%. The “cytotoxicity against Ramos cells (in words)” value with Ramos cells (0.15 μM) was “nearly undetectable”. Besides, the “change of apoptosis level on increase of antibody concentration from 0.2 μM to 2 μM” value in the series with Raji cells is recorded as “did not significantly enhance the apoptosis level; also recorded: did not increase”. Besides, in series [3], the “AUC (total area under the blood concentration versus time curve)” value is given as 716.46 ± 66.64 % ID h/mL.

RTX-Cy5: in the series with CD20 (1 μg RTX-Cy5, 4° C., 30 min), the “Cy5 signal of Ramos cells incubated with RTX-Cy5” value is “high Cy5 signal”. The “Cy5 signal after CD20 receptors were blocked with over-saturation dose of RTX” value with CD20 (pre-blocking by 10 μg RTX, then 1 μg RTX-Cy5) is on record as “no Cy5 signal detectable”.

In the case of `COc1cccc2c1C(=O)c1c(O)c3c(c(O)c1C2=O)C[C@@](O)(C(=O)CO)C[C@@H]3O[C@H]1C[C@H](N)[C@@H](O)[C@H](C)O1` [EPI, epirubicin], the “tumor size relative to baseline” value in series [4] was 1772±840 % of the baseline. Further, the terminal half-life in series [5] is 9 to 20 min.
